Measured values from ChEMBL document CHEMBL5096145, “Evaluation of imidazo[2,1-b]thiazole-based anticancer agents in one decade (2011-2020): Current status and future prospects” (Bioorg Med Chem, 2021).

How the values were obtained:
SK-MEL-28 = experiment: Antiproliferative activity against human SK-MEL-28 cells measured after 48 hrs by MTT assay; type: functional, cell-based; conditions: SK-MEL-28, 48 h
MDA-MB-435 = experiment: Antiproliferative activity against human MDA-MB-435 cells measured after 48 hrs by MTT assay; type: functional, cell-based; conditions: MDA-MB-435, 48 h
A-375 [1] = experiment: Cytotoxicity against human A-375 cells by MTT assay; type: functional, cell-based
UACC-62 [2] = experiment: Antiproliferative activity against human UACC-62 cells measured after 48 hrs by MTT assay; type: functional, cell-based; conditions: UACC-62, 48 h
A-375 [3] = experiment: Antiproliferative activity against human A375 cells measured after 48 hrs by MTT assay; type: functional, cell-based; conditions: A-375, 48 h
OVCAR-3 = experiment: Anticancer activity against human OVCAR-3 cells incubated for 48 hrs by SRB staining assay; type: functional
A549 [4] = experiment: Anticancer activity against human A549 cells incubated for 24 hrs by MTT assay; type: functional, cell-based; conditions: A549, 24 h
A549 [5] = experiment: Induction of apoptosis in human A549 cells assessed as increase in caspase-3 level at 0.5 uM measured after 48 hrs by ELISA method relative to control; type: functional
Tubulin = experiment: Inhibition of tubulin polymerization (unknown origin) by fluorescence based assay; type: protein-complex assay, Homo sapiens
A549 [6] = experiment: Induction of apoptosis in human A549 cells assessed as increase in caspase-3 level at 1 uM measured after 48 hrs by ELISA method relative to control (RVB = 9.1 %); type: functional
MCF7 [7] = experiment: Antiproliferative activity against human MCF7 cells measured after 48 hrs by MTT assay; type: functional, cell-based; conditions: MCF7, 48 h
HeLa [8] = experiment: Antiproliferative activity against human HeLa cells measured after 48 hrs by MTT assay; type: functional, cell-based
HepG2 [9] = experiment: Antiproliferative activity against human HepG2 cells measured after 48 hrs by MTT assay; type: functional, cell-based; conditions: HepG2, 48 h
DU-145 [10] = experiment: Cytotoxicity against human DU-145 cells assessed as reduction in cell viability; type: functional, cell-based
HT-29 = experiment: Cytotoxicity against human HT-29 cells assessed as reduction in cell viability relative to control; type: functional
DU-145 [11] = experiment: Potency index, ratio of sorafenib IC50 to test compound IC50 for cytotoxicity against human DU-145 cells; type: functional
MDA-MB-231 [12] = experiment: Induction of cell cycle arrest in human MDA-MB-231 cells assessed as accumulation of cells at G0/G1 phase measured at 1 uM incubated for 24 hrs by flow cytometric analysis relative to control; type: functional
L02 = experiment: Cytotoxicity against human HL7702 cells expressing EGFR assessed as reduction in cell viability incubated for 24 hrs by MTT assay; type: functional, cell-based; conditions: L02, 24 h
HeLa [13] = experiment: Cytotoxicity against human HeLa cells expressing EGFR assessed as reduction in cell viability incubated for 24 hrs by MTT assay; type: functional, cell-based
HUVEC = experiment: Cytotoxicity against HUVEC expressing EGFR assessed as reduction in cell viability incubated for 24 hrs by MTT assay; type: functional, cell-based; conditions: Homo sapiens
HepG2 [14] = experiment: Cytotoxicity against human HepG2 cells expressing EGFR assessed as reduction in cell viability incubated for 24 hrs by MTT assay; type: functional, cell-based; conditions: HepG2, 24 h
HL-60(TB) = experiment: Anticancer activity against human HL-60(TB) cells incubated for 48 hrs by SRB staining assay relative to control; type: functional
CAKI-1 = experiment: Anticancer activity against human CAKI-1 cells incubated for 48 hrs by SRB staining assay; type: functional
SR [15] = experiment: Anticancer activity against human SR cells incubated for 48 hrs by SRB staining assay relative to control; type: functional
SF-268 = experiment: Anticancer activity against human SF-268 cells incubated for 48 hrs by SRB staining assay; type: functional
DU-145 [16] = experiment: Anticancer activity against human DU-145 cells incubated for 48 hrs by SRB staining assay relative to control; type: functional
SR [17] = experiment: Anticancer activity against human SR cells incubated for 48 hrs by SRB staining assay; type: functional
NCI-H460 = experiment: Anticancer activity against human NCI-H460 cells incubated for 48 hrs by SRB staining assay; type: functional
CCRF-CEM = experiment: Anticancer activity against human CCRF-CEM cells incubated for 48 hrs by SRB staining assay; type: functional
MDA-MB-231 [18] = experiment: Anticancer activity against human MDA-MB-231 cells incubated for 48 hrs by SRB staining assay; type: functional
HCT-15 = experiment: Anticancer activity against human HCT-15 cells incubated for 48 hrs by SRB staining assay; type: functional
UO-31 = experiment: Anticancer activity against human UO-31 cells incubated for 48 hrs by SRB staining assay; type: functional
NCI-H322M = experiment: Anticancer activity against human NCI-H322M cells incubated for 48 hrs by SRB staining assay; type: functional
UACC-62 [19] = experiment: Induction of apoptosis in human UACC-62 cells assessed as increase in caspase-3/7 release at 0.18 uM relative to control; type: functional
[20] = Inhibition of BRAF V600E mutant in MEF cells incubated for 90 mins; type: cell-based, Mus musculus
A549 [21] = experiment: Antiproliferative activity human A549 cells; type: functional, cell-based
A549 [22] = experiment: Inhibition of tubulin polymerisation in human A549 cells relative to control; type: cell-based; conditions: dose or concentration not given here
[23] = Inhibition of tubulin polymerisation in human A549; type: cell-based
MDA-MB-231 [24] = experiment: Antiproliferative activity human MDA-MB-231 cells; type: functional, cell-based
A549 [25] = experiment: Antiproliferative activity against human A549 cells incubated for 48 hrs by MTT assay; type: functional, cell-based; conditions: A549, 48 h
MDA-MB-231 [26] = experiment: Antiproliferative activity against human MDA-MB-231 cells measured after 48 hrs by MTT assay; type: functional, cell-based; conditions: MDA-MB-231, 48 h
MCF7 [27] = experiment: Antiproliferative activity human MCF7 cells; type: functional, cell-based
OVCAR-5 = experiment: Cytotoxicity against human OVCAR-5 cells assessed as inhibition of cell growth; type: functional, cell-based

SMILES: CNC(=O)c1cc(Oc2ccc(NC(=O)Nc3ccc(Cl)c(C(F)(F)F)c3)cc2)ccn1 [SORAFENIB]
- IC50 (SK-MEL-28): 1950 nM
- IC50 (MDA-MB-435): 1950 nM
- IC50 (A-375 [1]): 10300 nM
- IC50 (UACC-62 [2]): 1950 nM
- IC50 (A-375 [3]): 1950 nM
- GI50 (OVCAR-3): 2950 nM

SMILES: COc1ccc(-c2sc3nc(-c4ccc(F)cc4)c(/C=C/C(=O)c4ccccn4)n3c2-c2ccc(OC)cc2)cc1
- IC50 (A549 [4]): 640 nM
- Activity (A549 [5]): 64.14%
- IC50 (Tubulin): 2350 nM
- Activity (A549 [6]): 69.07%

SMILES: O=C1Nc2ccccc2/C1=C\c1c(-c2ccc(Br)cc2)nc2scc(-c3cc4ccccc4oc3=O)n12
- IC50 (MCF7 [7]): 10800 nM
- IC50 (HeLa [8]): 6770 nM

SMILES: O=C1NC(=S)NC(=O)C1=Cc1c(-c2ccc(Cl)cc2)nc2scc(-c3cc4ccccc4oc3=O)n12
- IC50 (MCF7 [7]): 17000 nM
- IC50 (HepG2 [9]): 13900 nM
- IC50 (HeLa [8]): 5180 nM

SMILES: COc1ccc(C(=O)NCCNc2nccc(-c3c(-c4ccc(F)cc4)nc4sccn34)n2)cc1
- IC50 (DU-145 [10]): 1040 nM
- inhibition (INH) (HT-29): 85.38%
- Ratio IC50 (DU-145 [11]): 3

SMILES: COc1cc(C(=O)N/N=C/c2c(-c3ccc(F)cc3)nc3sccn23)cc(OC)c1OC
- Activity (MDA-MB-231 [12]): 75.8%

SMILES: O=C(Cc1csc2nc3ccccc3n12)Nc1ccccc1O
- IC50 (L02): > 100000 nM
- IC50 (HeLa [13]): 420 nM
- IC50 (HUVEC): > 100000 nM
- IC50 (HepG2 [14]): > 100000 nM

SMILES: O=C(Cc1csc2nc(-c3ccc(Cl)cc3)cn12)N/N=C/c1ccccc1O
- Activity (HL-60(TB)): 103.5%
- GI50 (CAKI-1): 776 nM
- Activity (SR [15]): 11.51%
- GI50 (SF-268): 1260 nM
- Activity (DU-145 [16]): 108.65%
- GI50 (SR [17]): 603 nM
- GI50 (NCI-H460): 1380 nM
- GI50 (CCRF-CEM): 741 nM
- GI50 (MDA-MB-231 [18]): 1580 nM
- GI50 (HCT-15): 468 nM
- GI50 (UO-31): 501 nM
- GI50 (NCI-H322M): 1550 nM
- GI50 (OVCAR-3): 363 nM

SMILES: O=C(NCCNc1nccc(-c2c(-c3cccc(O)c3)nc3sccn23)n1)c1ccccc1
- IC50 (SK-MEL-28): 180 nM
- IC50 (MDA-MB-435): 180 nM
- Activity (UACC-62 [19]): 53.33%
- IC50 [20]: 190 nM
- IC50 (UACC-62 [2]): 180 nM
- IC50 (A-375 [3]): 180 nM

SMILES: COC(=O)Nc1nc2cc(C(=O)c3cccs3)ccc2[nH]1 [NOCODAZOLE]
- IC50 (A549 [21]): 1140 nM
- inhibition (A549 [22]): 64.7%
- IC50 [23]: 1990 nM
- IC50 (MDA-MB-231 [24]): 2370 nM
- IC50 (A549 [25]): 1810 nM
- IC50 (MDA-MB-231 [26]): 1900 nM
- IC50 (MCF7 [27]): 2370 nM
- Activity (A549 [6]): 62.9%

SMILES: COc1cccc2c1C(=O)c1c(O)c3c(c(O)c1C2=O)C[C@@](O)(C(=O)CO)C[C@@H]3O[C@H]1C[C@H](N)[C@H](O)[C@H](C)O1 [DOXORUBICIN]
- IC50 (MDA-MB-231 [26]): 1800 nM

SMILES: COc1ccc(-c2nc3sccn3c2/C=C/C(=O)c2cc(OC)c(OC)c(OC)c2)cc1
- IC50 (OVCAR-5): 1990 nM
